# Like-named read-outs stand apart in the source and are kept apart here. Where a SMILES comes first, the peptide text is derived from it. Bridges are numbered along the chain shown (N, C = ends). [ ]: non-standard residue; d: D form. dOrn = NCCC[C@@H](N)C(=O)O
# Tests used:
# [1] = system: E. coli BW25113
# [2] = system: E. coli C1508; settings: broth microdilution, MDR clinical isolate
# [3] = system: M. avium subsp. avium ATCC 25291; settings: Middlebrook 7H9 + 10% OADC + 0.05% Tween-80
# [4] = system: Red blood cells (RBCs); assay: Haemolysis assay; format: cell-based; settings: human RBCs 1:50 in PBS pH 7.4, 37 °C, 1 h, absorbance 540 nm
# Protocol: Human blood was obtained from BioIVT (USA). Red blood cells (RBCs) were separated from blood by centrifugation at 500g for 5 min. Plasma was removed and the RBCs were washed twice with 150 mM NaCl, using a volume equivalent to the removed plasma. After washing, phosphate-buffered saline (PBS) with a pH of 7.4, in a volume equal to the removed plasma, was added to create the RBC suspension. Using a Labcyte Echo acoustic dispenser (Beckman Coulter), 1 µl of the compound was added to the wells of a 96-well V-bottom plate. The final concentration of DMSO was kept at 1% (v/v), with a DMSO-only negative control included in each replicate. For the positive control, 10 µl of Triton X-100 was added, starting at a concentration of 20% and serially diluted twofold to 0.02%. RBCs were diluted 1:50 in PBS (pH 7.4), and 99 µl of this diluted solution was added to each well. The plates were incubated at 37 °C for 1 h, then centrifuged at 500g for 5 min to pellet the intact RBCs. Sixty-five microlitres of the supernatant was transferred to a clear, flat-bottom 96-well plate, and the absorbance was measured at 540 nm.
# [5] = system: S. aureus USA 300; settings: broth microdilution, MHBII
# [6] = system: Lactobacillus plantarum GC4; assay: MIC, anaerobic gut bacteria; format: cell-based; settings: gut isolate, BHI + L-cysteine, haemin, vitamin K, 37 °C
# [7] = system: M. bovis BCG Pasteur ATCC 35734; settings: Middlebrook 7H9 + 10% OADC + 0.05% Tween-80
# [8] = system: M. tuberculosis H37Ra; settings: Middlebrook 7H9 + 10% OADC + 0.05% Tween-80
# [9] = mouse plasma 1:1 with PBS pH 7.4, 10 µM, 37 °C, 0–120 min, LC–MS, % remaining; duplicate, two biological replicates
# [10] = system: Clostridium perfringens GC1584; settings: gut isolate; BHI + L-cysteine, haemin, vitamin K, anaerobic, 37 °C
# [11] = human plasma 1:1 with PBS pH 7.4, 10 µM, 37 °C, 0–120 min, LC–MS, % remaining; duplicate, two biological replicates
# [12] = system: Bacteroides fragilis GC73; assay: MIC, anaerobic gut bacteria; format: cell-based; settings: gut isolate, BHI + L-cysteine, haemin, vitamin K, 37 °C
# [13] = system: S. aureus ATCC 29213
# [14] = system: Bacillus subtilis 168
# [15] = Acute tolerability in mice; format: in vivo; settings: doses up to 220 mg kg^−1 per day (divided into four doses over 20 hours, subcutaneous)
# [16] = system: E. coli ΔtolC ΔbamB; settings: broth microdilution
# [17] = system: HepG2 cells; assay: Mammalian cytotoxicity, Cell Titer Glo; format: cell-based, human; settings: 48 h exposure, DMEM + 10% FBS, 1% DMSO, Cell Titer Glo 2.0 luminescence
# Protocol: (§1) Mammalian culture was performed in Dulbecco Modified Eagle Medium (DMEM) supplemented with 10% fetal bovine serum (FBS), 2 mM L-glutamine, 100 units ml^−1 penicillin and 100 µg ml^−1 streptomycin. HEK293 cells (ATCC CRL-1573; generation 6) were seeded at 7,500 cells per well and HepG2 cells (ATCC HB8065; generation 18) were seeded at 4,000 cells per well in 384-well tissue culture-treated white plates in 50 µl DMEM and incubated for 18 h at 37 °C in the presence of 5% CO2. After 18 h of incubation, 500 nl of the compound and DMSO (1% final concentration) were added to the cells using a Labcyte Echo acoustic dispenser (Beckman Coulter). Cells were further incubated for 48 h and after that cell viability was assessed using Promega Cell Titer Glo 2.0 reagent (Fisher Scientific). Before incubating the plates at room temperature for 10 min, 50 µl of Cell Titer Glo was added directly to the medium. The plates were then shaken for 2 min. The Neo2 plate reader (Biotek) was used to read the luminescence through luminescent fibre. Cells that were either not treated or solely treated with DMSO were used as a control.
# [18] = system: HEK293 cells; assay: Mammalian cytotoxicity, Cell Titer Glo; format: cell-based, human; settings: 48 h exposure, DMEM + 10% FBS, 1% DMSO, Cell Titer Glo 2.0 luminescence
# Protocol: as §1
# [19] = system: A. baumanii ATCC 17978
# [20] = system: Blautia obeum GC925; assay: MIC, anaerobic gut bacteria; format: cell-based; settings: gut isolate, BHI + L-cysteine, haemin, vitamin K, 37 °C
# [21] = system: E. coli C1507; settings: broth microdilution, Ca+ MHB Medium; MDR clinical isolate
# [22] = system: S. enterica ATCC 14028; settings: broth microdilution, Ca+ MHB Medium
# [23] = system: E. coli C0617
# [24] = system: Candida albicans ATCC 90028
# [25] = system: Bifidobacterium breve GC96; assay: MIC, anaerobic gut bacteria; format: cell-based; settings: gut isolate, BHI + L-cysteine, haemin, vitamin K, 37 °C
# [26] = system: P. aeruginosa PAO1
# [27] = system: K. pneumoniae C1459
# [28] = broth microdilution, Ca+ MHB Medium
# [29] = broth microdilution, Ca+ MHB Medium, MDR clinical isolate
structure (smiles),measurement,setting,value
"C[C@@H](O)[C@@H]1NC(=O)[C@@H](CCCNC(=N)N)NC(=O)[C@@H](CCCNC(=N)N)NC(=O)[C@@H](CC(N)=O)NC(=O)[C@@H](NC(=O)[C@@H](Cc2ccccc2)NC(=O)[C@@H](CCCN)NC(=O)[C@H](N)CCCNC(=N)N)[C@@H](C)OC(=O)[C@H](Cc2c[nH]cn2)NC1=O [MKM-A, manikomycin] (H-[dR][dOrn][dF]T[dN][dR][dR]TH; ester 4-C)",MIC,[1]; BW25113,4 µg/mL
same,MIC,"[1]; broth microdilution, Ca+ MHB Medium (cation-adjusted MHB)",32 µg/mL
same,MIC,[2]; Ca+ MHB Medium,32 µg/mL
same,MIC,[2]; MOPS Minimal Medium,16 µg/mL
same,MIC,[2]; RPMI Medium,4 µg/mL
same,MIC,[3],32 µg/mL
same,Haemolysis (256 μg/ml),[4],<1%
same,MIC,[5],128 µg/mL
same,MIC,[6],>256 µg/mL
same,MIC,[7],2 µg/mL
same,MIC,[8],4 µg/mL
same,stability in plasma,[9],excellent stability
same,MIC,[10],>256 µg/mL
same,stability in plasma,[11],excellent stability
same,MIC,[12],>256 µg/mL
same,MIC,[13],64 µg/mL
same,MIC,[14],>64 µg/mL
same,acute tolerability,[15],acceptable acute tolerability
same,MIC,[16]; Ca+ MHB Medium,8 µg/mL
same,MIC,[16]; MOPS Minimal Medium,2 µg/mL
same,MIC,[16]; RPMI Medium,2 µg/mL
same,HepG2 (IC50),[17],>256 µg/mL
same,HEK 293 (IC50),[18],>256 µg/mL
same,MIC,[19]; ATCC 17978,64 µg/mL
same,MIC,[19]; [28],>128 µg/mL
same,MIC,[20],>256 µg/mL
same,MIC,[21],32 µg/mL
same,MIC,[22],32 µg/mL
same,MIC,[23]; C0617,8 µg/mL
same,MIC,[23]; [29],32 µg/mL
same,MIC,[24],>64 µg/mL
same,MIC,[25],256 µg/mL
same,MIC,[26]; PAO1,>64 µg/mL
same,MIC,[26]; [28],>128 µg/mL
same,MIC,"[26]; broth microdilution, MOPS Minimal Medium",>128 µg/mL
same,MIC,[27]; C1459,8 µg/mL
same,MIC,[27]; [29],32 µg/mL

# — article PMC13372681, “A natural depsipeptide antibiotic binds the E-site of the bacterial ribosome” (Nature, 2026)
